According to PubChem BioAssay AID977622 (Broad Institute, 2014):
Results filed as inconclusive are left out. Active and inactive are the calls of the source.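 Rule for the calls: active = Green signal of the normal strain falls at least twice as much as red signal of the resistant mutant, with overall culture growth loss under a set limit; inconclusive = no clear call, values can overlap the other calls; inactive = the rest.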

Tested on: E. coli WT ribosome GFP fluorescence, mixed culture, 24 h
Assay: wild-type E. coli growth inhibition versus h38 humanized strain – h38 mutant RFP, wild-type GFP, cherry-pick, dose response (AID 977622)
[1] = E. coli mixed culture, 24 h, measured here: total growth OD600

Row | Compound | AC50 | AC50 [1]
1 | Cc1nc(C)c(-c2ccn(S(=O)(=O)c3ccc(Cl)cc3)n2)o1 | > 100 µM (inactive) | –
2 | CC(C)(CC(=O)O)CC(=O)NCc1c(Cl)cccc1Sc1ccc(Cl)cc1 | – | > 100 µM
3 | CC(Nc1ncnc2ccccc12)c1ccccc1 (stereo unspecified) | > 100 µM (inactive) | > 100 µM
4 | c1cc2cc(-c3c(-c4ccc5c(c4)OCO5)noc3-c3ccsc3)ccc2[nH]1 | > 100 µM (inactive) | –
5 | CC(=O)Nc1cccc(-c2ccnc3c2CC(C(=O)Nc2ccc4c(c2)OCO4)O3)c1 (stereo unspecified) | > 100 µM (inactive) | –
6 | COc1cccc(S(=O)(=O)N2CCCCN3[C@H](C2)[C@H](c2ccc(C#CC(C)C)cc2)[C@@H]3CO)c1 | > 100 µM (inactive) | –
7 | Cn1cnc(CCNC(=O)C[C@H]2CC[C@@H]3[C@H](COC[C@H](O)CN3C(=O)Nc3ccc(Cl)cc3)O2)c1 | > 100 µM (inactive) | –
8 | COc1cc(C(=O)NCCc2c[nH]c3ccccc23)ccc1OCc1c(C)noc1C | > 100 µM (inactive) | > 100 µM
9 | CC(C)N1CC2(CC(c3ccccc3C(F)(F)F)=NO2)CN1C(=O)c1ccco1 (stereo unspecified) | > 100 µM (inactive) | > 100 µM
10 | O=C(CSCc1c(Cl)cccc1Cl)Nc1cccnc1 | > 100 µM (inactive) | > 100 µM
11 | CC[N+](CC)(CC#Cc1ccccc1)CC#Cc1ccccc1 | > 100 µM (inactive) | > 100 µM
12 | CCN(CC)c1nc(Oc2ccc(C(=O)OC)cc2)nc(N2CCOCC2)n1 | – | > 100 µM
13 | CCCn1c(=O)c2ccccc2n2c(SCCOc3ccc(OC)cc3)nnc12 | > 100 µM (inactive) | –
14 | O=C(COC(=O)C1CC2C=CC1C2)Nc1ccc([N+](=O)[O-])cc1 (stereo unspecified) | – | > 100 µM
15 | COC(=O)c1ccc(CCc2cc(O)c(Br)cc2O)cc1 | – | 46.5 µM
16 | O=c1[nH]c(C2CCN(S(=O)(=O)c3ccc4c(c3)OCCO4)CC2)nc2c1nnn2Cc1ccccc1F | > 100 µM (inactive) | –
17 | O=S(=O)(c1ccccc1)N1C[C@H]2[C@@H](c3ccccc31)[C@@H](CO)N2Cc1ccccc1 | > 100 µM (inactive) | –
18 | Cc1ccc(-n2cc(CNCCN3CCOC3=O)c(-c3ccc(F)cc3)n2)cc1 | – | > 100 µM

Row | Compound | AC50 | AC50 [1]
19 | COc1ccc(OC2C(=O)N(Cc3ccc4c(c3)OCO4)C2c2sccc2C)cc1 (stereo unspecified) | > 100 µM (inactive) | –
20 | Cc1ccc(-c2cc(-c3ccc(C)cc3)[n+](-c3ccc(C(=O)[O-])cc3)c(-c3ccc(C)cc3)c2)cc1 | > 100 µM (inactive) | –
21 | CCOC(=O)c1c(CS(=O)(=O)c2ccccc2)n(C)c2cc(Br)c(O)cc12 | > 100 µM (inactive) | –
22 | O=C(NCCc1ccc(Cl)cc1)c1ccc2nc[nH]c2c1 | > 100 µM (inactive) | –
23 | Cc1cccc(CN2C(=O)c3ccccc3Sc3ccc(C(=O)O)cc32)c1 | – | > 100 µM
24 | OC(COc1ccc(Cl)cc1)CN1CCN(c2ccccn2)CC1 (stereo unspecified) | – | > 100 µM
25 | O=S(=O)(NCc1ccc2c(c1)OCO2)c1ccc2c(c1)oc1ccccc12 | > 100 µM (inactive) | 40.8 µM
26 | CCCc1nc2cc(C)c(Br)c(C)n2c1CC1CCCCC1 | > 100 µM (inactive) | –
27 | Nc1ccccc1C#CC(=O)c1ccccc1 | > 100 µM (inactive) | –
28 | O=C(NCc1ccc2c(c1)OCO2)C1CCCN1S(=O)(=O)c1ccc(Cl)cc1 (stereo unspecified) | > 100 µM (inactive) | –
29 | COc1ccc(C(=O)NCCc2ccccn2)cc1S(=O)(=O)Nc1ccc(Br)cc1 | > 100 µM (inactive) | –
30 | CO[C@@H]1CN(C)C(=O)c2cc(NC(=O)C3CCCC3)ccc2OC[C@@H](C)N(C(=O)Nc2ccc(C(F)(F)F)cc2)C[C@H]1C | > 100 µM (inactive) | 49.5 µM
31 | CCOc1ccc(N(CC(=O)NC(C(C)C)C(C)C)S(=O)(=O)c2ccc(OC)c(OC)c2)cc1 | > 100 µM (inactive) | 50.9 µM
32 | CC(=O)Nc1ccc2nc3ccccc3nc2c1 | > 100 µM (inactive) | > 100 µM
33 | CCc1nnc(NS(=O)(=O)c2ccc(NC(=O)c3cccc(Cl)c3)cc2)s1 | > 100 µM (inactive) | –
34 | O=C(NCc1ccc(-c2nc3ccccc3s2)cc1)c1ccco1 | > 100 µM (inactive) | 3 µM
35 | Cc1cccc(S(=O)(=O)Nc2ccc(-c3cn4ccccc4n3)cc2)c1 | > 100 µM (inactive) | 26.7 µM
